SMILES strings stand for the structures. Where “and” joins values, the source holds several entries; their conditions need not be identical. Equal entries are not always repeated. Where two headings read alike, the source gives them in different places.

For one assay, the target named is CDK4 (Homo sapiens, UniProt P11802). Briefly: CDK inhibition assay, CDK4. Format: biochemical. The settings on record: CDK4; Table 1; read-out: IC50 CDK4. An excerpt:
(§1) Apart from reference compounds, the compounds listed are accompanied by an NU reference or identification code number.
(§2) By way of example, however, a typical protocol is summarised below.

The next assay deals with CDK2 (Homo sapiens, UniProt P24941). In words: CDK inhibition assay, CDK2. Format: biochemical. The settings on record: for IC50: Table 1.
Excerpt: as §1, §2

The target in a further assay is CDK1 (p34 cdc2)/cyclin B. In words: CDK inhibition assay (histone H1 kinase), CDK1. Format: biochemical, starfish (Marthasterias glacialis). The conditions noted are these: for IC50: CDK1, Table 1; for % inhibition CDK1: at 100 μM. The procedure: as §2
Histone H1 (type III-S (Sigma) 4° C.) 5 mg/ml in buffer C.
[^32 P]ATP […]: Make up using (multiples of) the following proportions:
DMSO cannot exceed 1% in the assay mixture. Inhibitors are added at 1/10 final assay volume and 10×final strength. DMSO stocks must therefore be diluted to 10×final desired concentration in ≤10% DMSO, ≥90% buffer C.
Start reaction in each tube at 30 second intervals by adding
5 ml [^32 P]ATP vortexing and placing in rack in waterbath at 30° C.
Terminate reaction after 10 min at 30 second intervals in tubes in same order by removing
25 ml reaction mix and spotting onto appropriately labelled filter, allowing to dry for 20-30 seconds and transferring to stirring 1% phosphoric acid.
Blank incubation is performed as above but without histone (add […] buffer C instead) Washing blank is […] ATP added directly to filter.

Where [1] appears, read: read-out: % inhibition CDK2, at 100 μM.

Sequence of CDK4 (P11802 whole entry, species assumed): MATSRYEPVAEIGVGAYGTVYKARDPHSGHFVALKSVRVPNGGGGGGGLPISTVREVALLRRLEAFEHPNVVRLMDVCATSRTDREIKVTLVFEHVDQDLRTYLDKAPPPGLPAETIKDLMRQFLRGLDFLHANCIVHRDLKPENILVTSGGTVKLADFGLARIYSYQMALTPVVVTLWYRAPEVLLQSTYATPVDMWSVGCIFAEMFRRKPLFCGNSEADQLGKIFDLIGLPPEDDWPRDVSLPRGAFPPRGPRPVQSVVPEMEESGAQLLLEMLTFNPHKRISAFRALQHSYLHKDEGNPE
Sequence of CDK4 (P24385 whole entry partner, species assumed): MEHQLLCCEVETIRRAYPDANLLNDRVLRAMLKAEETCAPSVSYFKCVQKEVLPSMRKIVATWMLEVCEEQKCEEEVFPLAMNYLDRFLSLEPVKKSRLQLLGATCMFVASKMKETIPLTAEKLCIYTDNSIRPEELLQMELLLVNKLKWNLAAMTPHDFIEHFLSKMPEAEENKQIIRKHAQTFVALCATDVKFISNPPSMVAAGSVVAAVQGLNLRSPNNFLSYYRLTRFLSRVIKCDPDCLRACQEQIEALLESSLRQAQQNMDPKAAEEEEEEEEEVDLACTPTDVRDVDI

With `Nc1nc(OCC2CC=CCC2)c2nc[nH]c2n1` (stereo not shown) [NU2073, O^6-(3'-Cyclohexenyl)methylguanine], the IC50 at CDK4 is 53 µM; at CDK2 (CDK2, read-out: IC50 CDK2) it was 98 µM and 18.8 µM; at CDK1 (p34 cdc2)/cyclin B, 3.2 µM. For the same compound, the inhibition at 100 µM on CDK2 (setting [1]) turned out to be 87 ± 1%.
`CC1(C)O[C@H]2[C@@H](O1)[C@@H](COc1nc(N)nc3[nH]cnc13)O[C@@H]1OC(C)(C)O[C@@H]12` [NU6017]: the IC50 on CDK4 is above 100 µM. Further, the inhibition at 100 µM at CDK2 (setting [1]) stood at 3 ± 7%. Moreover, the “% inhibition CDK1” value in the assay with CDK1 (p34 cdc2)/cyclin B amounted to 10 ± 6%.
For `Nc1nc(OCC2COc3ccccc3O2)c2nc[nH]c2n1` (stereo not shown) [NU6026, 2-amino-6-[1',4'-benzodioxanyl-2'-methyl]oxypurine], at CDK4, the concentration for half-maximal inhibition (IC50) is above 100 µM. Further, at CDK2 (at 10 μM), the “% inhibition CDK2” value is recorded as 9%. The inhibition at 10 µM on CDK2 (read-out: % inhibition CDK2, at 10 μM) is 12%. Also, on CDK2 (setting [1]), the inhibition at 100 µM amounted to 96%.
Regarding `CC(C)CCOc1nc(N)nc2nc[nH]c12` [NU2053, O^6-(3'-Methyl)butylguanine], the half-maximal inhibitory concentration (IC50) at CDK4 turned out to be 70 µM; on CDK1 (p34 cdc2)/cyclin B it was 18 µM.
Take `Nc1nc(OCC2CCCO2)c2nc[nH]c2n1` (stereo not shown) [NU6013, 2-amino-6-(2-tetrahydro-furanyl)-methyloxypurine]: the 50% inhibitory concentration (IC50) was 261 µM at CDK4 and above 500 µM on CDK2 (CDK2, read-out: IC50 CDK2). Further, at CDK2 (setting [1]), the inhibition at 100 µM is 39 ± 5%. The “% inhibition CDK1” value in the assay with CDK1 (p34 cdc2)/cyclin B is reported as 48 ± 7%.
Take `Nc1nc(OC[C@@H]2CCC(=O)N2)c2nc[nH]c2n1` [NU6031, 2-amino-6-[(S)-2'-oxopyrrolidin-5'-methyl]oxypurine]: the IC50 on CDK4 is above 1000 µM; on CDK2 (CDK2, read-out: IC50 CDK2), 314 µM. Also, the inhibition at 100 µM on CDK2 (setting [1]) came to 20 ± 2%. Also, the “% inhibition CDK1” value in the assay on CDK1 (p34 cdc2)/cyclin B is recorded as 26 ± 3%.
As to `Nc1nc(OC[C@H]2CCC(=O)N2)c2nc[nH]c2n1` [NU6032, 2-amino-6-[(R)-2'-oxopyrrolidin-5'-methyl]oxypurine], the IC50 on CDK4 was above 1000 µM; at CDK2 (CDK2, read-out: IC50 CDK2) it was 123 µM. Further, the inhibition at 100 µM at CDK2 (setting [1]) was 37 ± 2%. Further, the “% inhibition CDK1” value with CDK1 (p34 cdc2)/cyclin B turned out to be 54 ± 2%.
With `C=C(COc1nc(N)nc2[nH]cnc12)c1ccccc1` [NU2042, O^6-(2-Phenylallyl)guanine], the concentration for half-maximal inhibition (IC50) is > 100 µM and 330 µM on CDK4; 23.3 µM at CDK2 (CDK2, read-out: IC50 CDK2); 40 µM on CDK1 (p34 cdc2)/cyclin B. Further, the inhibition at 100 µM at CDK2 (setting [1]) is 75 ± 2%.
For the compound `Nc1nc(OCC2CCCC2)c2nc[nH]c2n1` [NU2068, O^6 -(Cyclopentyl)methylguanine], the IC50 was found to be 34 µM at CDK4 and 30 µM against CDK1 (p34 cdc2)/cyclin B.
For `CO[C@@H]1O[C@H](COc2nc(N)nc3[nH]cnc23)[C@H]2OC(C)(C)O[C@@H]12` [NU6012, O^6 -Ribofuranosylguanine], the IC50 at CDK4 was above 100 µM. Moreover, the inhibition at 100 µM on CDK2 (setting [1]) amounted to 16 ± 5%. Also, the “% inhibition CDK1” value in the assay on CDK1 (p34 cdc2)/cyclin B was 32%.
Consider `CC(C)C(=O)COc1nc(N)nc2nc[nH]c12` [NU2056, O^6-(3-Methyl-2-oxobutyl)guanine], for which the values for the IC50 at CDK4 and on CDK1 (p34 cdc2)/cyclin B were 122 µM and 22 µM, respectively. The inhibition at 100 µM on CDK2 (setting [1]) is 33 ± 2%.
Regarding `C=CCOc1nc(N)nc2nc[nH]c12` [NU2028, 2-amino-6-allyloxypurine], the concentration for half-maximal inhibition (IC50) at CDK4 is above 100 µM; against CDK1 (p34 cdc2)/cyclin B, 50 µM.
Regarding `Nc1nc(OCc2ccccc2)c2[nH]cnc2n1` [NU2005, 2-amino-6-benzyloxypurine], the IC50 came to 100 µM at CDK4; 28.6 µM against CDK2 (IC50 CDK2, CDK2); 35 µM at CDK1 (p34 cdc2)/cyclin B. For the same compound, the inhibition at 100 µM at CDK2 (setting [1]) was 64 ± 3%.
Consider `Nc1nc(OCC2CCCCO2)c2nc[nH]c2n1` (stereo not shown) [NU6019, 2-amino-6-(2-tetrahydropyranyl)-methyloxypurine], for which, on CDK4, the IC50 is above 100 µM. Also, the inhibition at 100 µM on CDK2 (setting [1]) is 44 ± 2%. For the same compound, the “% inhibition CDK1” value in the assay on CDK1 (p34 cdc2)/cyclin B is 51 ± 4%.
For the compound `Nc1nc(OCCC2CCCCC2)c2[nH]cnc2n1` [NU6023, 2-amino-6-cyclohexylethyloxypurine], the IC50 amounted to 69 µM at CDK4 and 47.6 µM on CDK2 (CDK2, read-out: IC50 CDK2). Also, at CDK2 (setting [1]), the inhibition at 100 µM came to 58 ± 6%. Further, the “% inhibition CDK1” value in the assay with CDK1 (p34 cdc2)/cyclin B is listed as 68 ± 6%.
As for `Nc1nc(OCc2ccccc2)c2[nH]c(=O)[nH]c2n1` [NU6043, 2-Amino-6-benzyl-8-oxoguanine], the inhibition at 100 µM on CDK2 (at 100 μM, read-out: % inhibition CDK2) was 8 ± 13%. In addition, the “% inhibition CDK1” value in the assay on CDK1 (p34 cdc2)/cyclin B amounted to 13 ± 9%.
